Test results: ChEMBL document CHEMBL1201862, “PubChem BioAssay data set” (2004)
Active and inactive are the calls of the source.

Experiments:
[1] = Luminescence Cell-Based Dose Confirmation to Identify Activators of 5'UTR Stem-Loop Driven Alpha-Synuclein mRNA Translation in H4 Neuroglioblastoma Cells. [Related pubchem assays: 1829 (Project Summary), 1814 (Primary HTS)]; format: functional
[2] = Luminescence Cell-Based Dose Response HTS to Identify Activators of Luciferase Translation or Activity in H4 […] Cells. [Related pubchem assays: 1829 (Project Summary), 1814 (Primary HTS)]; format: functional
[3] = Luminescence Cell-Based Dose Response to Identify Activators of 5'UTR Stem-Loop Driven Prion Protein mRNA Translation in H4-C Neuroglioblastoma Cells. [Related pubchem assays: 1829 (Project Summary), 1814 (Primary HTS)]; format: functional
H4 = assay: Luminescence Cell-Based Dose Response HTS to Identify Activators of 5'UTR Stem-Loop Driven Prion Protein mRNA Translation in H4 Neuroglioblastoma Cells. [Related pubchem assays: 1829 (Project Summary), 1814 (Primary HTS)]; format: functional; details: Homo sapiens
[4] = fluconazole-exposed Candida albicans growth modulators – fluorescence, retest, confirmation (AID 2467); format: functional, cell-based
[5] = NIH-3T3 fibroblast cytotoxicity, dose response, cytotoxicity control, cell-based, fluorescence, Alamar Blue, secondary assay (AID 2327); format: functional;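 note: NIH-3T3 mouse fibroblasts cultured with fluconazole at 8 µg/mL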
Vero [6] = assay: viability of Vero cells under compound – cytotoxicity control for flavivirus capping enzyme inhibitors (AID 588742); format: functional; details: Chlorocebus sabaeus
[7] = Luminescence Cell-Based Dose Response to Identify Activators of Luciferase Translation or Activity in H4-C Neuroglioblastoma Cells. [Related pubchem assays: 1829 (Project Summary), 1814 (Primary HTS)]; format: functional
[8] = target: Mitogen-activated protein kinase 10 (Homo sapiens, UniProt P53779); assay: Dose response biochemical screening assay for inhibitors of c-Jun N-Terminal Kinase 3 (JNK3). [Related pubchem assays: 746 ]
Chain of Mitogen-activated protein kinase 10 (P53779 whole entry, the tested form may be a part): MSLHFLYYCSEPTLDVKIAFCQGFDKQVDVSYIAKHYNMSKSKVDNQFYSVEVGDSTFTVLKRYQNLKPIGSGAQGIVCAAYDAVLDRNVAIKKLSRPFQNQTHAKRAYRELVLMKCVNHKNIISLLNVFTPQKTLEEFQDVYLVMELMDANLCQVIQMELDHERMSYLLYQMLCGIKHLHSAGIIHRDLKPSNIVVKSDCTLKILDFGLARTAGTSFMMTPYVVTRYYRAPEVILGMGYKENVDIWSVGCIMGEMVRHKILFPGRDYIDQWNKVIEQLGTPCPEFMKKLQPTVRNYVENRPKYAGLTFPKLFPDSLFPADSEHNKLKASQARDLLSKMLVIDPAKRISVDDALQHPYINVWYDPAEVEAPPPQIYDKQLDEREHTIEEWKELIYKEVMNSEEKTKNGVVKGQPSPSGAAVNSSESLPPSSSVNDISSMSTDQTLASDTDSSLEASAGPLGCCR

[9] = target: T1, RNA-binding protein pos-1 (Caenorhabditis elegans, UniProt G5EF15); assay: disruptors of C. elegans POS-1 RNA interaction – biochemical, fluorescence polarization, dose response (AID 1964);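 note: purified POS-1 fused to maltose binding protein made in E. coli; potency of compounds blocking POS-1 binding to fluorescent RNA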
T1 sequence (G5EF15 whole entry): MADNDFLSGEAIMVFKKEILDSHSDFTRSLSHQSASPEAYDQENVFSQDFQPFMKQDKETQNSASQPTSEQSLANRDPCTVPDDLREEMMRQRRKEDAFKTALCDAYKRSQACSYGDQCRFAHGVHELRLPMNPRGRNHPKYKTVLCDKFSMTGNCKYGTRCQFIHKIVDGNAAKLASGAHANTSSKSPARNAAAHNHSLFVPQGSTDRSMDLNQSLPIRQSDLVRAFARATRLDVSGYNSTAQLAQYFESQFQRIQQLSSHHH

[10] = target: Peroxisome proliferator-activated receptor gamma/Nuclear receptor coactivator 3 (Homo sapiens, UniProt P37231); assay: (§1) TR-FRET dose response biochemical High Throughput Screening assay for agonists of the steroid receptor coactivator 3 (SRC-3) recruitment by the peroxisome proliferator-activated receptor gamma (PPAR gamma): non-selective agonists. [Related pubchem assays: 1301 (Confirmation screen.), 1048 (Primary screen.)]; format: functional
[11] = target: Peroxisome proliferator-activated receptor gamma/Nuclear receptor coactivator 1 (Homo sapiens, UniProt P37231); assay: as §1, with “1 (SRC-1)” for “3 (SRC-3)”, “assays (depositor defined):AID1300, AID1808, AID504735, AID631]” for “assays: 1301 (Confirmation screen.), 1048 (Primary screen.)]”; format: protein assay
Chain of Peroxisome proliferator-activated receptor gamma/Nuclear receptor coactivator 1 (P37231 whole entry): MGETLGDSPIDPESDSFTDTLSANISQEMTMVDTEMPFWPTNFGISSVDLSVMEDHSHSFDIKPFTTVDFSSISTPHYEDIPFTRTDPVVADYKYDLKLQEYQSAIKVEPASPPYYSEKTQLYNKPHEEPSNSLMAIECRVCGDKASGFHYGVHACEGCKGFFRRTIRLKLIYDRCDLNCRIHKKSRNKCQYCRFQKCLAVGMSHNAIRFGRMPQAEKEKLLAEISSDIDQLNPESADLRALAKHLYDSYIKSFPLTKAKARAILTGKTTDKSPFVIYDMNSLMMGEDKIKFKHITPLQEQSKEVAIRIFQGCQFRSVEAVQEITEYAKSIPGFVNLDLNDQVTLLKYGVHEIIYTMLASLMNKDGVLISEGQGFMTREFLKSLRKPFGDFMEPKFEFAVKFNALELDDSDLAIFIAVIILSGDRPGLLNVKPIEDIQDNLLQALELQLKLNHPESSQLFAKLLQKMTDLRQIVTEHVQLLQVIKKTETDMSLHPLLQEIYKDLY
Chain of Peroxisome proliferator-activated receptor gamma/Nuclear receptor coactivator 1 (Q15788 whole entry, further chain): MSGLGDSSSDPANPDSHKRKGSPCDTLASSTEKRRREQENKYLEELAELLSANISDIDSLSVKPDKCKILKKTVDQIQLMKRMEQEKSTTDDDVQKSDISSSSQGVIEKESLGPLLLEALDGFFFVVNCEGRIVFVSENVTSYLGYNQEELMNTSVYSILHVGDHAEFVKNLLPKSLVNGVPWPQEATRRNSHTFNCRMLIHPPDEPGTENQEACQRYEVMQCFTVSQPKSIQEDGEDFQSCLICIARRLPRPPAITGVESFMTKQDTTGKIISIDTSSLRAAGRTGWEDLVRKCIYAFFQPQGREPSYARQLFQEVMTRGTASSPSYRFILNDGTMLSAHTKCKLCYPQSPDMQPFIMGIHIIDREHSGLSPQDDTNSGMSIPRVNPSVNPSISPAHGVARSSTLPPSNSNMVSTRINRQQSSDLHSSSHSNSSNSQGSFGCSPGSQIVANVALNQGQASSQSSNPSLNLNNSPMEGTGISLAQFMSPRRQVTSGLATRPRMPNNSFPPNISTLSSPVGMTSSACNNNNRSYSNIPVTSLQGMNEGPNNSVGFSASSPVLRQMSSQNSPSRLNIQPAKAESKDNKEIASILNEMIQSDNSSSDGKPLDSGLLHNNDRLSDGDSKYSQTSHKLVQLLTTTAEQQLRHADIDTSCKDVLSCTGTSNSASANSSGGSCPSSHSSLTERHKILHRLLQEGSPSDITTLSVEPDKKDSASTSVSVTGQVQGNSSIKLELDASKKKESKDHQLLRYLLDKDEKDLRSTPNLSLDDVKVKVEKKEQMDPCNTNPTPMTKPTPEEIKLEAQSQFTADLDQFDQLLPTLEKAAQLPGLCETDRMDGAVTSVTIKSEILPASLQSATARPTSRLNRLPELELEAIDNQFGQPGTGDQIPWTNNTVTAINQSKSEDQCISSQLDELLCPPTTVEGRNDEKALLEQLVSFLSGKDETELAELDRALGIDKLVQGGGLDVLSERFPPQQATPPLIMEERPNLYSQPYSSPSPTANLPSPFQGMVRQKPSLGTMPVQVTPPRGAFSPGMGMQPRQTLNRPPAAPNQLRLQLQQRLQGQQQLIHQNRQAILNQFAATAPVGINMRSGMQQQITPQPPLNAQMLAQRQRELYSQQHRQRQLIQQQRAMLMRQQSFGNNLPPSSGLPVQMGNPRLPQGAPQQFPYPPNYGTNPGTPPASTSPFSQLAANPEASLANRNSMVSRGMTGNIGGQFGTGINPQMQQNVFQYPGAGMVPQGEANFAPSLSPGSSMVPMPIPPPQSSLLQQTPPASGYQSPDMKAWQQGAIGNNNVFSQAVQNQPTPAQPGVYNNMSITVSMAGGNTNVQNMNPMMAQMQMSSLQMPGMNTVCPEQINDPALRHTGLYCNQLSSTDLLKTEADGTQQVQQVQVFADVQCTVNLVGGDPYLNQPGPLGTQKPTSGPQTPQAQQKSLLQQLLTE

ORF 73 = target: T2, ORF 73 (Human herpesvirus 8, UniProt O40947); assay: KSHV LANA DNA-binding disruption – biochemical, fluorescence polarization, cherry-picked samples, dose response (AID 504725); design: species or system Human gammaherpesvirus 8;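 note: fluorescence polarization of a labeled DNA duplex reporting LANA DNA binding; potency is for inhibitors that block LANA binding to the DNA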
T2 sequence (O40947 whole entry): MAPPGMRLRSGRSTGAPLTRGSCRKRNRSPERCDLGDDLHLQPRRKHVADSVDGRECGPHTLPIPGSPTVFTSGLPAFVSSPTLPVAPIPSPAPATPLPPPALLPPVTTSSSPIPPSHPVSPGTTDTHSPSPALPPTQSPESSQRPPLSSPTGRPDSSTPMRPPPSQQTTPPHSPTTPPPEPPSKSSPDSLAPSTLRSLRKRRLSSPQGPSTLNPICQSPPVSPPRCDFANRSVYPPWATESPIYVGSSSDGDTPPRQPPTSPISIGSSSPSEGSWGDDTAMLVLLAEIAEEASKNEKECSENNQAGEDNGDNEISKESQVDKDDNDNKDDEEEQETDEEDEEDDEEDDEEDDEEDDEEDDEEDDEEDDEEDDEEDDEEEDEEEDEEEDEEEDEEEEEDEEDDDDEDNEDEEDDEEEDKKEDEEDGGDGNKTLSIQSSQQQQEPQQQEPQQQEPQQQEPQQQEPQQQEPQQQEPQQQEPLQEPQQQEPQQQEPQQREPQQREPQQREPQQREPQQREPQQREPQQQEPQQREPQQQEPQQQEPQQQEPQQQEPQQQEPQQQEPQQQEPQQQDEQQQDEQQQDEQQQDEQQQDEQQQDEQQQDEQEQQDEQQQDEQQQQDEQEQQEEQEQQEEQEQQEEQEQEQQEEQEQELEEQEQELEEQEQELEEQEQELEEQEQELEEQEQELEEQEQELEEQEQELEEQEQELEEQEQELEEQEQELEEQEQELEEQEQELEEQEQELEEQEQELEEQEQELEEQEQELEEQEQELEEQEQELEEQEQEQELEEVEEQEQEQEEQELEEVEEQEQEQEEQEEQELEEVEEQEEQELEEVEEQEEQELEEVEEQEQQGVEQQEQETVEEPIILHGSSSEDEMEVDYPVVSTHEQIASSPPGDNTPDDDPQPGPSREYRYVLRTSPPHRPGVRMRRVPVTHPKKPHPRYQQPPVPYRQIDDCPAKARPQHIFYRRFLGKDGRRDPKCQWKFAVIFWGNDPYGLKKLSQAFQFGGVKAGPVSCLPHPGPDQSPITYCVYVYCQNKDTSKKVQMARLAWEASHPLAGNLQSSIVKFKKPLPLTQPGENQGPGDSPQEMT

[12] = target: Peroxisome proliferator-activated receptor gamma/Nuclear receptor coactivator 2 (Homo sapiens, UniProt P37231); assay: TR-FRET dose response biochemical High Throughput Screening assay for agonists of the steroid receptor coactivator 2 (SRC-2) recruitment by the peroxisome proliferator-activated receptor gamma (PPAR gamma): non-selective agonists. [Related pubchem assays: 1297, 1032 ]; format: functional
Chain of Peroxisome proliferator-activated receptor gamma/Nuclear receptor coactivator 2 (P37231 whole entry): as the sequence (P37231 whole entry) above
Chain of Peroxisome proliferator-activated receptor gamma/Nuclear receptor coactivator 2 (Q15596 whole entry, further chain): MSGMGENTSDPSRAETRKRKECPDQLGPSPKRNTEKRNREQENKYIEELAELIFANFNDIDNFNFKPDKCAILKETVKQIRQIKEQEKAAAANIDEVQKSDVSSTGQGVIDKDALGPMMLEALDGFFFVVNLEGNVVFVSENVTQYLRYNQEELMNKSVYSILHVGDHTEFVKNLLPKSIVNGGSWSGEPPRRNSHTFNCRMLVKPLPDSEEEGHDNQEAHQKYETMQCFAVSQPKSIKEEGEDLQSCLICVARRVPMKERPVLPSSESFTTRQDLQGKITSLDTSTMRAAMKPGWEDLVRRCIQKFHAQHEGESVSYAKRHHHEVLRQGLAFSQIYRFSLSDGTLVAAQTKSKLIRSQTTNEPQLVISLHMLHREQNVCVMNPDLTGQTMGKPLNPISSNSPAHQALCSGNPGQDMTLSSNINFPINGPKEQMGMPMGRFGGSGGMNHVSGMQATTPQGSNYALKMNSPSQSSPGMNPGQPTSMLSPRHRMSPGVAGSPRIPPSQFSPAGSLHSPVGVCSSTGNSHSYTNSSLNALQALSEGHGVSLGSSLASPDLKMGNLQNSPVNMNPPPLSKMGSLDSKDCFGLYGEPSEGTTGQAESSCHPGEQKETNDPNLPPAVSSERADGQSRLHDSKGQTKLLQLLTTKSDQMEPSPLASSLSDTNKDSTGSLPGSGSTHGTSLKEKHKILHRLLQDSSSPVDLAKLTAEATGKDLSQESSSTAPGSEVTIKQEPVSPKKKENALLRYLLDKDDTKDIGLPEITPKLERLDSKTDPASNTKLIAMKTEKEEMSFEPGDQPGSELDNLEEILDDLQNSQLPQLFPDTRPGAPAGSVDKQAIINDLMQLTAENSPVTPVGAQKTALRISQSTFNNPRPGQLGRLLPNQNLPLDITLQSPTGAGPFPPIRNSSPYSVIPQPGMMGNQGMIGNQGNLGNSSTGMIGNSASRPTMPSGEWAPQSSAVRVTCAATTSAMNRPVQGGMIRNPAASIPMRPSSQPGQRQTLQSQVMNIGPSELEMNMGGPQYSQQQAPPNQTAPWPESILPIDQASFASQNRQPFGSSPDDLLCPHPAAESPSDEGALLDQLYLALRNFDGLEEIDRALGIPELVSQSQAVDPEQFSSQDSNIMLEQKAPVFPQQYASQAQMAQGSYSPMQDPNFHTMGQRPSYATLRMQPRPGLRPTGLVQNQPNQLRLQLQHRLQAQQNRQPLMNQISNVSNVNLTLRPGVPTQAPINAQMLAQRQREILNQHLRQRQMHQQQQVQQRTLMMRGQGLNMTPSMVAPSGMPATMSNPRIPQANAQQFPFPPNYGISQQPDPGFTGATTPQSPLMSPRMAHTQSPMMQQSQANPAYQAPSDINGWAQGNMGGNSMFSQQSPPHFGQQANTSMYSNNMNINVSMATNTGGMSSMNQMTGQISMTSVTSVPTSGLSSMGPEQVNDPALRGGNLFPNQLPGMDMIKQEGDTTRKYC

Keap1/Nrf2 = Keap1/Nrf2 (Homo sapiens, UniProt Q14145); assay: disruptors of Keap1 binding to Nrf2 peptide – biochemical, fluorescence polarization, cherry-picked samples, dose response (AID 588683)
[13] = target: UDP-galactopyranose mutase (Mycobacterium tuberculosis, UniProt P9WIQ1); assay: Inhibitors of Mycobacterium tuberculosis UDP-galactopyranose mutase (UGM) enzyme Measured in Biochemical System Using Plate Reader - 2105-02_Inhibitor_Dose_CherryPick_Activity. [Related pubchem assays (depositor defined):AID504439]
Chain of UDP-galactopyranose mutase (P9WIQ1 whole entry): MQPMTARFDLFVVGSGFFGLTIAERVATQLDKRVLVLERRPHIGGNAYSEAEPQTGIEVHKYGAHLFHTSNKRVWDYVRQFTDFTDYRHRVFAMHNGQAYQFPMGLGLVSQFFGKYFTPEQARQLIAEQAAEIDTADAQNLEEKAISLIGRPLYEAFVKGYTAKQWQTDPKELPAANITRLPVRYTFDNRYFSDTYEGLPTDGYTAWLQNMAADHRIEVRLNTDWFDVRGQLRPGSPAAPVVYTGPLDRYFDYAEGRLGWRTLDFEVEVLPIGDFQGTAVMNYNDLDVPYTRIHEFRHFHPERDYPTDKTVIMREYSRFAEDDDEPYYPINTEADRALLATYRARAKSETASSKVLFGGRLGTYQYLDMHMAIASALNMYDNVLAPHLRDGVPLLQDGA

HeLa = assay: viability loss in HeLa cells – cell-based, 24 h, cherry-picked samples, cytotoxicity control, dose response (AID 504726); format: functional; details: Homo sapiens;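 note: potency for cytotoxicity as loss of luminescence signal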
14-3-3 protein gamma = 14-3-3 protein gamma (Homo sapiens, UniProt P61981); assay: modulators of 14-3-3 gamma client binding – dose response (AID 711); format: functional
Chain of 14-3-3 protein gamma (P61981 whole entry): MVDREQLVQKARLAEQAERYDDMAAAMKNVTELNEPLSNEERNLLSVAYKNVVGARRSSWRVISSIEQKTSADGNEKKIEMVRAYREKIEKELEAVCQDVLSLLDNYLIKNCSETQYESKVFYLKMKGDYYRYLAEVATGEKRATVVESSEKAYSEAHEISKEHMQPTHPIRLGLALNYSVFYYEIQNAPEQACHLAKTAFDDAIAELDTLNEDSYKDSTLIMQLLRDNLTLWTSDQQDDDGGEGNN

[14] = target: T3, Zinc finger protein mex-5 (Caenorhabditis elegans, UniProt Q9XUB2); assay: potency of MEX-5 RNA-binding blockers – biochemical, C. elegans, fluorescence polarization, dose response (AID 1960)
T3 sequence (Q9XUB2 whole entry): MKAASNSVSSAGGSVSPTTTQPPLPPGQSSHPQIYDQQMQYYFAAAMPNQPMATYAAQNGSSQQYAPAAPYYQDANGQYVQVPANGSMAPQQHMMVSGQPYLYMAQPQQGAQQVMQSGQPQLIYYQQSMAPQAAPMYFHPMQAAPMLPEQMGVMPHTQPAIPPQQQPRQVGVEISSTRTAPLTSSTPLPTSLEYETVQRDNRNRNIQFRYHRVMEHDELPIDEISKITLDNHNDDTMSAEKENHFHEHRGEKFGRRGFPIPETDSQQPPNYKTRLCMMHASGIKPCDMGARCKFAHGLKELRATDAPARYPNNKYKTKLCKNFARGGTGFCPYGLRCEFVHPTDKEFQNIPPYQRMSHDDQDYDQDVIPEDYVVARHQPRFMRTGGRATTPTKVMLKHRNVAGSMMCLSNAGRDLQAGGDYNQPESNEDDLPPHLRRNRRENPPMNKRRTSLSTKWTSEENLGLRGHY

Bcl-2-related protein A1 [15] = target: T4, Bcl-2-related protein A1 (Mus musculus, UniProt Q07440); assay: Bfl-1 binding inhibitors, SAR follow-up, biochemical, fluorescence polarization (AID 1070)
T4 sequence (Q07440 whole entry): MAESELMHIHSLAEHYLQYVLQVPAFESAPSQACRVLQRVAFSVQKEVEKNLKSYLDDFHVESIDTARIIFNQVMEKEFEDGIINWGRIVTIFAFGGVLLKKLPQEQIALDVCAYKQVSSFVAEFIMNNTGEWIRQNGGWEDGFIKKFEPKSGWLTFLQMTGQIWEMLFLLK

Bcl-2-related protein A1 [16] = target: T4, Bcl-2-related protein A1; assay: small-molecule antagonists of Bfl-1/BH3 interaction – biochemical, TR-FRET, mouse Bfl-1, confirmation (AID 621);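 note: TR-FRET binding of GST-Bfl-1 to FITC-labelled Bid peptide via terbium antibody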
[17] = loss of viability in HepG2 cells – cell-based, CellTiter-Glo, cherry-picked, cytotoxicity control for Shn3 inhibitor project, dose response (AID 624134); format: functional
Vero [18] = assay: mammalian cell viability reduction – secondary assay, cytotoxicity control for West Nile virus antiviral project, dose response (AID 1650); format: functional; details: Chlorocebus sabaeus
INS1 = assay: INS-1E survival protection against cytokine death – cell-based, luminescence, retest, dose response (AID 449756); format: functional; details: Rattus norvegicus;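 note: cell death triggered by IL-1 beta plus TNF-alpha plus IFN-gamma mixture; protective hits raise ATP signal compared with cytokine alone wells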
Interleukin-8 [19] = target: T5, Interleukin-8 (Homo sapiens, UniProt P10145); assay: Dose Response confirmation of uHTS small molecule hits for cystic fibrosis induced NFkb Inhibitors in a TNFa-induced IL8 counterscreen.; format: functional; details: read-out: IC50_Mean
T5 sequence (P10145 whole entry): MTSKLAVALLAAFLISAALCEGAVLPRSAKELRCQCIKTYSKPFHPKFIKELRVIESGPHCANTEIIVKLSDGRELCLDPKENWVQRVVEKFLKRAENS

Interleukin-8 [20] = target: T5, Interleukin-8; assay: Dose Response confirmation of uHTS small molecule hits for cystic fibrosis induced NFkb Inhibitors in a PAF-induced IL8 counterscreen.; format: functional; details: read-out: IC50_Mean
[21] = target: T6, Heat shock factor protein 1 (Mus musculus, UniProt P38532); assay: enhancement of HSF1-driven luciferase signal – cell-based, NIH3T3, luminescence, dose retest, confirmation (AID 435004); format: functional;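 note: stress induced by proteasome inhibitor MG132 added 30 min after compound; luciferase reporter driven by HSF1 response element in NIH3T3 cells; actives raise luminescence as potentiators of the MG132 stress response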
T6 sequence (P38532 whole entry): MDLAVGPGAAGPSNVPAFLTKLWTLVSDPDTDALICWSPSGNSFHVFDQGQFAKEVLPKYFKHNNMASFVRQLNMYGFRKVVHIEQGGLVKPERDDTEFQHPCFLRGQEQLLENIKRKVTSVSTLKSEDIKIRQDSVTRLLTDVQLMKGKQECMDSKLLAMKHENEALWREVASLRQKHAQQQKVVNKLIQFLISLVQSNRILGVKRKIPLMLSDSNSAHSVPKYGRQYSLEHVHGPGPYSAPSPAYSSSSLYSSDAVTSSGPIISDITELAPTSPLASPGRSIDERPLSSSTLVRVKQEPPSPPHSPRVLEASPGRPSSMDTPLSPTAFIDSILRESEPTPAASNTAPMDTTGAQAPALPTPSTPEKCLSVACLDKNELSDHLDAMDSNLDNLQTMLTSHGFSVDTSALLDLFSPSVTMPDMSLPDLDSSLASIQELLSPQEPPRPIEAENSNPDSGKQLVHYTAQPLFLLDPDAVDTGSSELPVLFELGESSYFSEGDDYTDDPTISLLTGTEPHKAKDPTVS

[22] = non-specific 3'UTR reporter inhibition in Clone20-Shn3RL – cell-based, Renilla luciferase, cherry-picked, counter-screen for Shn3 inhibitor project, dose response (AID 624133); format: functional
[23] = reduction of Shn3 3'UTR-driven luciferase in osteoblasts – cell-based, Clone20 osteoblasts, firefly luciferase, cherry-picked, dose response (AID 624132); format: functional;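 note: firefly luciferase luminescence from reporter carrying the Shn3 3'UTR in osteoblasts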

O=C(NNC(=O)c1cc2ccccc2cc1O)c1cccs1
EC50 [1]: 1.87 µM (active)
EC50 [2]: < 0.1 µM (active)
EC50 [3]: 9.37 µM (active)
EC50 (H4): > 120 µM (not active)
EC50 [4]: > 38 µM (not active)
EC50 [5]: > 150 µM (inactive)
CC50 (Vero [6]): > 40 µM (active)
EC50 [7]: 1.47 µM (active)

O=C1c2ccccc2-c2onc3ccc(NCc4ccco4)c1c23
IC50 [8]: 24 µM (not active)
EC50 [9]: 0.173 µM (inconclusive)
EC50 [10]: > 79.4 µM (not active)
EC50 [11]: > 79.4 µM (inactive)
AC50 (ORF 73): 7.42 µM (active)
EC50 [12]: 24.3 µM (not active)
AC50 (Keap1/Nrf2): 1.26 µM (active)
AC50 [13]: 1.2 µM (active)
AC50 (HeLa): 17.1 µM (active)
IC50 (14-3-3 protein gamma): < 44 µM (inconclusive)
EC50 [14]: < 0.06 µM (inconclusive)

COc1ccc2nc(O)c(-c3nnn(-c4ccccc4)n3)cc2c1
IC50 (Bcl-2-related protein A1 [15]): > 100 µM (not active)
IC50 (Bcl-2-related protein A1 [16]): > 100 µM (not active)

COc1ccc2c(c1OC)C(=O)OC2Nc1nc(-c2ccccc2)cs1 (centres undefined)
AC50 [17]: 58.8 µM (active)
CC50 (Vero [18]): 9.86 µM (active)
AC50 (INS1): 17.6 µM (active)
IC50 (Interleukin-8 [19]): 39.9 µM (inactive)
IC50 (Interleukin-8 [20]): 0.697 µM (active)
EC50 [21]: 13.6 µM (active)
AC50 [22]: 17.7 µM (active)
AC50 [23]: 4.7 µM (active)
